Source: the NIST ThermoML archive (doi:10.1021/acs.jced.5b00778)
± gives the expanded uncertainty stated by the source. Each block holds one compound with its values, some of them ahead of it.

Assay: mn = molality of the nth substance listed, in mol/kg
Details: 298.15 K; for surface tension liquid-gas: Ring tensiometer; for electrical conductivity: 100 kPa, Liquid, Alternating current cell with electrodes

Structure (SMILES): CCCCCCCCCCCCCCOCC(O)C[N+](C)(C)CCCCCCCC.[Br-] (stereo not given) + O
surface tension liquid-gas (m1 = 3.388e-06): 60.85 ± 2.1 mN/m
surface tension liquid-gas (m1 = 4.169e-06): 59.07 ± 2.1 mN/m
surface tension liquid-gas (m1 = 5.012e-06): 58.67 ± 2.1 mN/m
surface tension liquid-gas (m1 = 6.761e-06): 54.53 ± 2.1 mN/m
surface tension liquid-gas (m1 = 8.511e-06): 51.91 ± 2.1 mN/m
surface tension liquid-gas (m1 = 1.175e-05): 47.9 ± 2.1 mN/m
surface tension liquid-gas (m1 = 1.514e-05): 44.86 ± 2.1 mN/m
surface tension liquid-gas (m1 = 1.995e-05): 41.5 ± 2.1 mN/m
surface tension liquid-gas (m1 = 2.512e-05): 39.09 ± 2.1 mN/m
surface tension liquid-gas (m1 = 3.388e-05): 36.16 ± 2.1 mN/m
surface tension liquid-gas (m1 = 4.571e-05): 33.74 ± 2.1 mN/m
electrical conductivity (m1 = 0.009): 0.000161 ± 1.9e-05 S/m
electrical conductivity (m1 = 0.0144): 0.000255 ± 2.7e-05 S/m
electrical conductivity (m1 = 0.0198): 0.000343 ± 3.6e-05 S/m
electrical conductivity (m1 = 0.0252): 0.000427 ± 4.4e-05 S/m
electrical conductivity (m1 = 0.0306): 0.000521 ± 5.3e-05 S/m
electrical conductivity (m1 = 0.036): 0.000636 ± 6.4e-05 S/m
electrical conductivity (m1 = 0.0414): 0.000683 ± 6.9e-05 S/m

Structure (SMILES): CCCCCCCCCCCCOCC(O)C[N+](C)(C)CCCCCCCC.[Br-] (stereo not given) + O
surface tension liquid-gas (m1 = 1.047e-05): 64.92 ± 2.1 mN/m
surface tension liquid-gas (m1 = 1.738e-05): 60.07 ± 2.1 mN/m
surface tension liquid-gas (m1 = 2.089e-05): 57.65 ± 2.1 mN/m
surface tension liquid-gas (m1 = 2.818e-05): 53.97 ± 2.1 mN/m
surface tension liquid-gas (m1 = 3.548e-05): 52.04 ± 2.1 mN/m
surface tension liquid-gas (m1 = 4.898e-05): 48.46 ± 2.1 mN/m
surface tension liquid-gas (m1 = 6.31e-05): 46.1 ± 2.1 mN/m
surface tension liquid-gas (m1 = 8.511e-05): 42.5 ± 2.1 mN/m
surface tension liquid-gas (m1 = 0.0001047): 39.79 ± 2.1 mN/m
surface tension liquid-gas (m1 = 0.0001479): 36.43 ± 2.1 mN/m
surface tension liquid-gas (m1 = 0.0001905): 33.42 ± 2 mN/m
electrical conductivity (m1 = 0.014): 0.00023 ± 2.3e-05 S/m
electrical conductivity (m1 = 0.028): 0.00034 ± 3.5e-05 S/m
electrical conductivity (m1 = 0.0561): 0.00065 ± 6.5e-05 S/m
electrical conductivity (m1 = 0.0841): 0.00105 ± 0.00011 S/m
electrical conductivity (m1 = 0.1121): 0.00117 ± 0.00012 S/m
electrical conductivity (m1 = 0.1402): 0.00141 ± 0.00014 S/m
electrical conductivity (m1 = 0.1682): 0.00173 ± 0.00017 S/m
electrical conductivity (m1 = 0.1962): 0.00195 ± 0.00019 S/m
electrical conductivity (m1 = 0.2243): 0.00226 ± 0.00023 S/m

Structure (SMILES): CCCCCCCCCCOCC(O)C[N+](C)(C)CCCCCCCC.[Br-] (stereo not given) + O
surface tension liquid-gas (m1 = 2.399e-05): 63.84 ± 2.1 mN/m
surface tension liquid-gas (m1 = 3.388e-05): 60.78 ± 2.1 mN/m
surface tension liquid-gas (m1 = 3.715e-05): 59.62 ± 2.1 mN/m
surface tension liquid-gas (m1 = 7.413e-05): 53.71 ± 2.1 mN/m
surface tension liquid-gas (m1 = 0.0001122): 49.75 ± 2.1 mN/m
surface tension liquid-gas (m1 = 0.0001514): 47 ± 2.1 mN/m
surface tension liquid-gas (m1 = 0.0001905): 45.13 ± 2.1 mN/m
surface tension liquid-gas (m1 = 0.000263): 41.95 ± 2.1 mN/m
surface tension liquid-gas (m1 = 0.0003715): 39.03 ± 2.1 mN/m
surface tension liquid-gas (m1 = 0.0005248): 35.86 ± 2.1 mN/m
surface tension liquid-gas (m1 = 0.0007413): 33.29 ± 2 mN/m
electrical conductivity (m1 = 7.59e-05): 0.00088 ± 8.8e-05 S/m
electrical conductivity (m1 = 0.0001518): 0.00161 ± 0.00016 S/m
electrical conductivity (m1 = 0.000235): 0.0023 ± 0.00023 S/m
electrical conductivity (m1 = 0.0003035): 0.00316 ± 0.00032 S/m
electrical conductivity (m1 = 0.0004553): 0.00439 ± 0.00044 S/m
electrical conductivity (m1 = 0.000535): 0.00496 ± 0.0005 S/m
electrical conductivity (m1 = 0.000607): 0.00573 ± 0.00057 S/m
electrical conductivity (m1 = 0.0007588): 0.00697 ± 0.0007 S/m
electrical conductivity (m1 = 0.000835): 0.00758 ± 0.00076 S/m
electrical conductivity (m1 = 0.0009105): 0.00827 ± 0.00083 S/m
electrical conductivity (m1 = 0.001062): 0.00937 ± 0.00094 S/m

Second part, the compound after the results:

surface tension liquid-gas (m1 = 2.04e-06): 69.09 ± 2.2 mN/m
surface tension liquid-gas (m1 = 2.63e-06): 68.55 ± 2.1 mN/m
surface tension liquid-gas (m1 = 3.55e-06): 61.94 ± 2.1 mN/m
surface tension liquid-gas (m1 = 3.8e-06): 60.95 ± 2.1 mN/m
surface tension liquid-gas (m1 = 4.07e-06): 55.95 ± 2.1 mN/m
surface tension liquid-gas (m1 = 4.37e-06): 48.71 ± 2.1 mN/m
surface tension liquid-gas (m1 = 5.89e-06): 44.65 ± 2.1 mN/m
surface tension liquid-gas (m1 = 7.94e-06): 41.6 ± 2.1 mN/m
surface tension liquid-gas (m1 = 1.023e-05): 37.64 ± 2.1 mN/m
electrical conductivity (m1 = 0.0067): 5.6e-05 ± 6e-06 S/m
electrical conductivity (m1 = 0.0076): 5.8e-05 ± 6e-06 S/m
electrical conductivity (m1 = 0.0086): 6.4e-05 ± 8e-06 S/m
electrical conductivity (m1 = 0.0095): 7.4e-05 ± 8e-06 S/m
electrical conductivity (m1 = 0.0105): 7.7e-05 ± 8e-06 S/m
electrical conductivity (m1 = 0.0114): 7.8e-05 ± 9e-06 S/m
electrical conductivity (m1 = 0.0124): 9.3e-05 ± 1.1e-05 S/m
electrical conductivity (m1 = 0.0133): 9.6e-05 ± 1.2e-05 S/m
electrical conductivity (m1 = 0.0143): 0.000114 ± 1.2e-05 S/m
electrical conductivity (m1 = 0.0152): 0.000111 ± 1.1e-05 S/m
electrical conductivity (m1 = 0.0162): 0.000121 ± 1.4e-05 S/m
electrical conductivity (m1 = 0.0171): 0.000132 ± 1.5e-05 S/m
electrical conductivity (m1 = 0.0181): 0.000144 ± 1.5e-05 S/m
electrical conductivity (m1 = 0.019): 0.000147 ± 1.6e-05 S/m
electrical conductivity (m1 = 0.0209): 0.000168 ± 1.8e-05 S/m
electrical conductivity (m1 = 0.0219): 0.000176 ± 1.9e-05 S/m
electrical conductivity (m1 = 0.0229): 0.00019 ± 2.1e-05 S/m
electrical conductivity (m1 = 0.0238): 0.000201 ± 2.1e-05 S/m
electrical conductivity (m1 = 0.0248): 0.000212 ± 2.2e-05 S/m
Structure (SMILES): CCCCCCCCCCCCCCCCOCC(O)C[N+](C)(C)CCCCCCCC.[Br-] (stereo not given) + O

surface tension liquid-gas (m1 = 2.4e-07): 70.44 ± 2.2 mN/m
surface tension liquid-gas (m1 = 2.82e-07): 69.87 ± 2.2 mN/m
surface tension liquid-gas (m1 = 4.17e-07): 69.41 ± 2.2 mN/m
surface tension liquid-gas (m1 = 5.62e-07): 65.68 ± 2.1 mN/m
surface tension liquid-gas (m1 = 7.24e-07): 57.18 ± 2.1 mN/m
surface tension liquid-gas (m1 = 8.51e-07): 53.77 ± 2.1 mN/m
surface tension liquid-gas (m1 = 1.148e-06): 48.14 ± 2.1 mN/m
surface tension liquid-gas (m1 = 1.413e-06): 44.06 ± 2.1 mN/m
surface tension liquid-gas (m1 = 1.698e-06): 40.95 ± 2.1 mN/m
surface tension liquid-gas (m1 = 2.291e-06): 35.65 ± 2.1 mN/m
surface tension liquid-gas (m1 = 2.818e-06): 33.63 ± 2.1 mN/m
electrical conductivity (m1 = 0.0013): 2.8e-05 ± 9e-06 S/m
electrical conductivity (m1 = 0.0027): 4.9e-05 ± 7e-06 S/m
electrical conductivity (m1 = 0.004): 4.9e-05 ± 5e-06 S/m
electrical conductivity (m1 = 0.0053): 5.8e-05 ± 9e-06 S/m
electrical conductivity (m1 = 0.0067): 8e-05 ± 1.3e-05 S/m
electrical conductivity (m1 = 0.008): 0.000102 ± 1.2e-05 S/m
electrical conductivity (m1 = 0.0093): 0.000111 ± 1.2e-05 S/m
electrical conductivity (m1 = 0.0107): 0.000117 ± 1.5e-05 S/m
electrical conductivity (m1 = 0.012): 0.000157 ± 2e-05 S/m
electrical conductivity (m1 = 0.0133): 0.00017 ± 1.7e-05 S/m
electrical conductivity (m1 = 0.0147): 0.000166 ± 1.8e-05 S/m
electrical conductivity (m1 = 0.016): 0.000201 ± 2.2e-05 S/m
electrical conductivity (m1 = 0.0174): 0.000211 ± 2.3e-05 S/m
electrical conductivity (m1 = 0.0187): 0.000243 ± 2.7e-05 S/m
electrical conductivity (m1 = 0.02): 0.000261 ± 2.8e-05 S/m
electrical conductivity (m1 = 0.0214): 0.000284 ± 3e-05 S/m
electrical conductivity (m1 = 0.0227): 0.000297 ± 3.1e-05 S/m
electrical conductivity (m1 = 0.024): 0.000319 ± 3.3e-05 S/m
electrical conductivity (m1 = 0.0254): 0.00033 ± 3.4e-05 S/m
electrical conductivity (m1 = 0.0267): 0.000361 ± 3.8e-05 S/m
electrical conductivity (m1 = 0.028): 0.000376 ± 3.8e-05 S/m
Structure (SMILES): CCCCCCCCCCCCCC[N+](C)(C)CC(O)COCCCCCCCCCC.[Br-] (stereo not given) + O
